# Patent US7446119B2, “Miticidal triazolidine derivatives” (Crompton Corporation, priority 2005, dated 2008)
# Key:
# Tetranychus urticae Koch [1] = experiment: Mite ovicide test (MIOV); format: in vivo; conditions: mite eggs on cowpea leaves, sprayed to run off with 100 ppm, examined nine days after treatment, based on unhatched eggs
# Protocol: The remaining examples relate to the miticidal use of the compounds of this invention. In all these examples, a stock solution for the compounds was prepared at 3000 ppm by dissolving each compound to be tested in acetone with 0.67% Tween (v/v), a wetting agent. […] For each example that follows, this stock solution was used and the specificized dilutions made. All the tests discussed below, which involved treatment with compounds of this invention were always repeated with controls, in which the active compound was not provided, to permit a comparison upon which the percent control was calculated. One day before treatment of cowpea primary leaves with the test solutions, rings of tree tanglefoot were applied to each of two cowpea primary leaves, one from each of two plants in a pot. For the mite ovicide tests, groups of adult mites (Tetranychus urticae Koch) were transferred into the rings one day before treatment and the females were allowed to deposit eggs until one hour before treatment, at which point all the adults were removed. The plants were then sprayed to run off with a 100 ppm solution diluted from the 3000 ppm stock solution. Nine days following treatment the ovicide rings were examined for unhatched eggs and living immature mites. The percent control was estimated based on the number of unhatched eggs.
# Tetranychus urticae Koch [2] = experiment: Mite adulticide pre-infection test (MI); format: in vivo; conditions: cowpea plants sprayed to run off with 300 ppm, adult mites transferred one day after treatment, examined five days later
# Protocol: The remaining examples relate to the miticidal use of the compounds of this invention. In all these examples, a stock solution for the compounds was prepared at 3000 ppm by dissolving each compound to be tested in acetone with 0.67% Tween (v/v), a wetting agent. […] For each example that follows, this stock solution was used and the specificized dilutions made. All the tests discussed below, which involved treatment with compounds of this invention were always repeated with controls, in which the active compound was not provided, to permit a comparison upon which the percent control was calculated. One day before treatment of cowpea primary leaves with the test solutions, rings of tree tanglefoot were applied to each of two cowpea primary leaves, one from each of two plants in a pot. For the mite adulticide pre-infection tests, plants were sprayed to run off with a 300 ppm solution diluted from the 3000 ppm stock solution. One day following treatment of the plants with the test solution, groups of approximately 25 adult mites were transferred into the rings. Five days later these rings were examined for live mites remaining on the leaves. The percent control was estimated based on the number of mites surviving on the control plants.
smiles,measurement,setting,value
"COc1ccc(-c2ccccc2)cc1N1CN(C)CN1C(=O)OC(C)C [Compound 1, 1-methylethyl 2-(4-methoxy-[1,1′-biphenyl]-3-yl)-4-methyl-1,2,4-triazolidine-1-carboxylate]",Percent Control MIOV,Tetranychus urticae Koch [1],100%
same,Percent Control MI,Tetranychus urticae Koch [2],100%
